For orientation: IC50 means the concentration that gives 50% inhibition.

Like-named read-outs stand apart in the source and are kept apart here. Square brackets hold non-standard residues; d marks the D form. Peptide text beside a SMILES is read from it. * marks the point of attachment. sY = N[C@@H](Cc1ccc(OS(=O)(=O)O)cc1)C(=O)O; Cbz = O=C(OCc1ccccc1)*

One assay concerns CCK-B receptors. The following applies: Bock et al., J. Med. Chem., 32, 13-16 (1989); cited from earlier work.
The next assay concerns CCK receptor. The settings on record: literature; cited from earlier work.
The next assay has as its system gastrin. The settings on record: J. Martinez, J. Med. Chem. 27, 1597 (1984); cited from earlier work.
Another assay addresses T1, CCK receptor (pancreas) (Rattus norvegicus, UniProt P30551).
T1 construct: The whole pancreas was dissected free of fat tissue and was homogenized; from tissue; host or cells: rat whole pancreas, homogenate membranes
T1 sequence (P30551 1-444): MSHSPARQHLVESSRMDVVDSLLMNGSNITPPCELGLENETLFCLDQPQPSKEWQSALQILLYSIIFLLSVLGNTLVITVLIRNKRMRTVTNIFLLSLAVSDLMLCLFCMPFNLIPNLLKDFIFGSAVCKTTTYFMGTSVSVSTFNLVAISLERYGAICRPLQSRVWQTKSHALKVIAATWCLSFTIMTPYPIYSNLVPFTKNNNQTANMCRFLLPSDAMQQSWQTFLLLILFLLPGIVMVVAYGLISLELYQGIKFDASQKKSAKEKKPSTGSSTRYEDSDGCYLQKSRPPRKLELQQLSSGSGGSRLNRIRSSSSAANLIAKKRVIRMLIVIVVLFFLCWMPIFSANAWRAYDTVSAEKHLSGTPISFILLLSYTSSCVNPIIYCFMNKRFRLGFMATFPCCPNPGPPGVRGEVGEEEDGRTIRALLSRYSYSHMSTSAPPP
The experiment in a line: CCK Receptor Binding (Pancreas). More on the design: species or system rat (male Sprague-Dawley). The protocol: 1. CCK Receptor Binding (Pancreas)
CCK-8 sulphated was radiolabelled with ^125 I-Bolton Hunter reagent (2000 Ci/mmole). Receptor binding was performed according to Chang and Lotti (Proc. Natl. Acad. Sci. 83, 4923-4926, 1986) with minor modifications.
Male Sprague-Dawley rats (150-200 g) were sacrificed by decapitation. The whole pancreas was dissected free of fat tissue and was homogenized in 25 volumes of ice-cold 10 mM Hepes buffer with 0.1% soya bean trypsin inhibitor (pH 7.4 at 25° C.) with a Kinematica Polytron. The homogenates were centrifuged at 47,800 g for 10 min. Pellets were resuspended in 10 volumes of binding assay buffer (20 mM Hepes, 1 mM EGTA, 5 mM MgCl2, 150 mM NaCl, bacitracin 0.25 mg/ml, soya bean trypsin inhibitor 0.1 mg/ml, and bovine serum albumin 2 mg/ml, pH 6.5 at 25° C.) using a teflon homogenizer, 15 strokes at 500 rpm. The homogenate was further diluted in binding assay buffer to give a final concentration of 0.5 mg original wet weight/1 ml buffer. […] All assays were run in duplicate. The reaction mixtures were incubated at 25° C. for 2 hours and the reaction terminated by rapid filtration (Brandell 24 well cell harvester) over Whatman GF/C filters, washing 3×4 mls with ice-cold 100 mM NaCl. The radioactivity on the filters was counted with a LKB gamma counter.
(§1) Drug displacement studies were performed with at least 10 concentrations of compounds of formula 1 and the IC50 values were determined by regression analysis.

In assay [1] the target is T2, CCK receptor (brain, cortex) (Cavia porcellus, UniProt H0VZC5).
T2 construct: the cortex was removed and homogenized in 25 mL ice-cold 0.32M sucrose; from tissue; host or cells: guinea pig brain cortex, P2 membranes
T2 sequence (H0VZC5 1-426): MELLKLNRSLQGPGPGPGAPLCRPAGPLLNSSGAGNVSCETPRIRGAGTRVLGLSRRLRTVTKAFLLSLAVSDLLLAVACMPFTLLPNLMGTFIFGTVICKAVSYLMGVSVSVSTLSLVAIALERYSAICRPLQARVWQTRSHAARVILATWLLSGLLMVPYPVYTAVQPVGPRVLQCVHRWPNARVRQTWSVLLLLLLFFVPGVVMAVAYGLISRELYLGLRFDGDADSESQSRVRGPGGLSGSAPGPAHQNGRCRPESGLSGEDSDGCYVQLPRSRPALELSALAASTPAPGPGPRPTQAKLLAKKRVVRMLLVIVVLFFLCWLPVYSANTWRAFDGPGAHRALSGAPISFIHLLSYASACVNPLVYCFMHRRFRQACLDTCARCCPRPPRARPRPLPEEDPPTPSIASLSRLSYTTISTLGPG
In words: CCK Receptor Binding (Brain). Also on record: species or system guinea pig (male Hartley). The protocol: 2. CCK Receptor Binding (Brain)
CCK-8 sulphated was radiolabelled and the binding was performed according to the description for the pancreas method with minor modifications.
Male Hartley guinea pigs (300-500 g) were sacrificed by decapitation and the cortex was removed and homogenized in 25 mL ice-cold 0.32M sucrose. The homogenates were centrifuged at 1000 g for 10 minutes and the resulting supernatant was recentrifuged at 20,000 g for 20 minutes. […] All assays were run in duplicate. The reaction mixtures were incubated at 25° C. for 2 hours and then the reaction was terminated on Whatman GF/C filters by rapid filtration (Brandell 24 well cell Harvester) with 3×5 ml washes of cold 100 mM NaCl. The radioactivity on the filters was then counted with a LKB gamma counter.
as §1

Setting [2] is: 125I-CCK-8 50 pM, rat pancreas, 25° C., 2 hours, read-out: CCK RECEPTOR BINDING RESULTS IC50, 125I-CCK Pancreas.
[3] abbreviates: 125I-CCK-8 50 pM, guinea pig cortex, 25° C., 2 hours, read-out: CCK RECEPTOR BINDING RESULTS IC50, 125I-CCK Brain.

Take `Cc1cccc(NC(=O)N[C@@H]2N=C(c3ccccc3)c3ccccc3N(C)C2=O)c1` [(R)-N-(2,3-dihydro-1-methyl-2-oxo-5-phenyl-1H-1,4-benzodiazepin-3-yl)-N^1-(3-methylphenyl) urea]: the “antagonist of CCK-B receptors” value with CCK-B receptors was “potent and selective antagonist of CCK-B receptors”.
With `CSCC[C@H](NC(=O)[C@H](Cc1ccc(OS(=O)(=O)O)cc1)NC(=O)OCc1ccccc1)C(=O)NCC(=O)N[C@@H](Cc1c[nH]c2ccccc12)C(=O)N[C@@H](CCSC)C(=O)N[C@@H](CC(=O)O)C(N)=O` [Cbz--Tyr(SO3 H)--Met--Gly--Trp--Met--Asp--NH2] (Cbz-[sY]MGWMD-NH2), in the assay with CCK receptor, the “CCK-receptor antagonist potency / agonism” value is on record as “partial agonist”.
For `CCCC(=O)Nc1nc2c(ncn2[C@@H]2O[C@@H]3COP(=O)(O)O[C@H]3[C@H]2OC(=O)CCC)c(=O)[nH]1` [dibutyryl cyclic GMP], in the assay on CCK receptor, the “CCK-receptor antagonist potency / agonism” value is on record as “the most potent”.
For the compound `CCCN(CCC)C(=O)C(CCC(=O)O)NC(=O)c1ccccc1` (centres unmarked) [proglumide], the “in vitro gastrin antagonism” value in the assay with gastrin is on record as “very weak in vitro antagonists”.
On to `O=C(Nc1ccc(Cl)cc1)NC1N=C(c2ccccc2)c2ccccc2N(CC(Cl)CO)C1=O` (centres unmarked) [Example 4, N-{1,3-Dihydro-1-[3-((hydroxy)-2-chloro)propyl]-2-oxo-5-phenyl-1H-1,4-benzodiazepin-3-yl}-N'-{[4-chlorophenyl]-urea}], for which the figures for the IC50 (at CCK receptor (pancreas) (setting [2]); in assay [1] (setting [3])) were > 3000 nM and 62 nM, respectively.
For the compound `O=C(Nc1ccc(Cl)cc1)NC1N=C(c2ccccc2)c2ccccc2N(CC(O)CN2CCCC2)C1=O` (centres unmarked) [Example 2, N-{1,3-Dihydro-1-[3-((pyrrolidinyl)-2-hydroxy)propyl]-2-oxo-5-phenyl-1H-1,4-benzodiazepin-3-yl}-N'-{[4-chlorophenyl]-urea}], the IC50 at CCK receptor (pancreas) was > 3000 nM; in assay [1] (setting [3]), 300 nM.
Regarding `O=C(Nc1ccc(Cl)cc1)NC1N=C(c2ccccc2)c2ccccc2N(Cc2nnn[nH]2)C1=O` (centres unmarked) [Example 1, N-{1,3-Dihydro-1-[1H-tetrazol-5yl]methyl-2-oxo-5-phenyl-1H-1,4-benzodiazepin-3-yl}-N'-{[4-chlorophenyl]-urea}], the values for the IC50 (on CCK receptor (pancreas); in assay [1] (setting [3])) were 2130 nM and 494 nM, respectively.
Regarding `CN(C)CC(O)CN1C(=O)C(NC(=O)Nc2ccc(Cl)cc2)N=C(c2ccccc2)c2ccccc21` (centres unmarked) [Example 3, N-{1,3-Dihydro-1-[3-((dimethylamino)-2-hydroxy)propyl]-2-oxo-5-phenyl-1H-1,4-benzodiazepin-3-yl}-N'-{[4-chlorophenyl]-urea}], the figures for the IC50 (on CCK receptor (pancreas); in assay [1] (setting [3])) were > 3000 nM and 430 nM, respectively.
With `O=C(Nc1ccc(Cl)cc1)NC1N=C(c2ccccc2)c2ccccc2N(CC(O)CO)C1=O` (centres unmarked) [Example 5, N-{1,3-Dihydro-1-[2,3-(dihydroxy)propyl]-2-oxo-5-phenyl-1H-1,4-benzodiazepin-3-yl}-N'-{[4-chlorophenyl]-urea}], the IC50 at CCK receptor (pancreas) (setting [2]) is > 3000 nM; in assay [1] it was 118 nM.

These data come from US5218114A, “Cholecystokinin antagonists” (Merck & Co., Inc., priority 1992, dated 1993).
